Assay: xn = mol fraction of the nth substance listed
Conditions: Gas, Buoyancy - hydrostatic balance with magnetic suspension - one sinker

FCC(F)(F)F [1,1,1,2-tetrafluoroethane] + CCC
Conditions | mass density [kg/m3]
278.16 K, 230.77 kPa, x1 = 0.7989 | 9.5443
278.19 K, 442.42 kPa, x1 = 0.2391 | 12.1807
278.2 K, 102.16 kPa, x1 = 0.2391 | 2.6113
278.2 K, 233.61 kPa, x1 = 0.2391 | 6.1346
278.2 K, 514.55 kPa, x1 = 0.2391 | 14.4261
278.21 K, 366.56 kPa, x1 = 0.2391 | 9.9124
283.13 K, 211.19 kPa, x1 = 0.7822 | 8.4187
283.13 K, 329.43 kPa, x1 = 0.7822 | 13.5211
283.13 K, 459.52 kPa, x1 = 0.7822 | 19.5449
283.14 K, 311.18 kPa, x1 = 0.5401 | 10.6211
283.14 K, 501.49 kPa, x1 = 0.5401 | 17.8976
283.15 K, 101.13 kPa, x1 = 0.5401 | 3.3055
283.15 K, 102.6 kPa, x1 = 0.7822 | 3.9912
283.15 K, 120.94 kPa, x1 = 0.6201 | 4.2161
283.15 K, 198.01 kPa, x1 = 0.6201 | 7.0141
283.15 K, 210.93 kPa, x1 = 0.5401 | 7.0468
283.15 K, 416.97 kPa, x1 = 0.5401 | 14.5789
283.15 K, 602.24 kPa, x1 = 0.5401 | 22.0672
283.16 K, 415.7 kPa, x1 = 0.6201 | 15.476
283.16 K, 514.53 kPa, x1 = 0.6201 | 19.6465
283.17 K, 114.18 kPa, x1 = 0.2391 | 2.8713
283.17 K, 457.55 kPa, x1 = 0.2391 | 12.3388
283.17 K, 636.31 kPa, x1 = 0.2391 | 17.9209
283.18 K, 185.02 kPa, x1 = 0.2391 | 4.7134
283.18 K, 298.86 kPa, x1 = 0.2391 | 7.7872
283.18 K, 383.01 kPa, x1 = 0.2391 | 10.158
288.1 K, 100.89 kPa, x1 = 0.7822 | 3.85
288.12 K, 214.43 kPa, x1 = 0.7822 | 8.3795
288.12 K, 325.43 kPa, x1 = 0.7822 | 13.0428
288.12 K, 552.55 kPa, x1 = 0.7822 | 23.4956
288.12 K, 552.56 kPa, x1 = 0.7822 | 23.4963
288.12 K, 709.34 kPa, x1 = 0.5401 | 26.0161
288.13 K, 102.08 kPa, x1 = 0.5401 | 3.2763
288.13 K, 317.7 kPa, x1 = 0.5401 | 10.6307
288.13 K, 424.11 kPa, x1 = 0.5401 | 14.5146
288.13 K, 446.77 kPa, x1 = 0.6201 | 16.3715
288.13 K, 448.02 kPa, x1 = 0.7822 | 18.5148
288.13 K, 514.46 kPa, x1 = 0.5401 | 17.9692
288.13 K, 613.19 kPa, x1 = 0.5401 | 21.9339
288.14 K, 209.2 kPa, x1 = 0.5401 | 6.8504
288.14 K, 232.81 kPa, x1 = 0.6201 | 8.1461
288.14 K, 332.05 kPa, x1 = 0.6201 | 11.8593
288.15 K, 122.39 kPa, x1 = 0.6201 | 4.191
288.15 K, 553.06 kPa, x1 = 0.6201 | 20.7897
288.43 K, 753.42 kPa, x1 = 0.2391 | 21.238
288.45 K, 459.95 kPa, x1 = 0.2391 | 12.1079
288.45 K, 680.21 kPa, x1 = 0.2391 | 18.823
288.46 K, 121.21 kPa, x1 = 0.2391 | 2.9907
288.46 K, 302.44 kPa, x1 = 0.2391 | 7.7138
288.46 K, 384.07 kPa, x1 = 0.2391 | 9.9536
288.46 K, 571.46 kPa, x1 = 0.2391 | 15.4131
288.47 K, 209.6 kPa, x1 = 0.2391 | 5.253
293.14 K, 105.81 kPa, x1 = 0.7822 | 3.9639
293.15 K, 425.23 kPa, x1 = 0.7822 | 17.0517
293.15 K, 454.02 kPa, x1 = 0.5401 | 15.2811
293.15 K, 540.93 kPa, x1 = 0.7822 | 22.3179
293.15 K, 558.53 kPa, x1 = 0.5401 | 19.2207
293.15 K, 637.77 kPa, x1 = 0.7822 | 27.0005
293.15 K, 758.84 kPa, x1 = 0.5401 | 27.3827
293.15 K, 856.96 kPa, x1 = 0.5401 | 31.7378
293.16 K, 103.22 kPa, x1 = 0.5401 | 3.2534
293.16 K, 213.45 kPa, x1 = 0.7822 | 8.1673
293.16 K, 216.96 kPa, x1 = 0.5401 | 6.9744
293.16 K, 311.55 kPa, x1 = 0.7822 | 12.1753
293.16 K, 328.59 kPa, x1 = 0.5401 | 10.787
293.16 K, 662.93 kPa, x1 = 0.5401 | 23.3629
293.17 K, 427.29 kPa, x1 = 0.6201 | 15.2346
293.17 K, 611.78 kPa, x1 = 0.6201 | 22.7331
293.18 K, 124.6 kPa, x1 = 0.6201 | 4.1917
293.18 K, 229.76 kPa, x1 = 0.6201 | 7.8762
293.18 K, 328.76 kPa, x1 = 0.6201 | 11.4874
293.18 K, 525.37 kPa, x1 = 0.6201 | 19.1338
293.19 K, 728.09 kPa, x1 = 0.6201 | 27.8461

— the NIST ThermoML archive (doi:10.1016/j.jct.2014.10.001)
